Values quoted from earlier work in patent publication US20230106592A1, “METHOD FOR TREATING CANCER USING A COMBINATION OF DNA DAMAGING AGENTS AND ATR INHIBITORS” (Vertex Pharmaceuticals Incorporated, priority 2015, published 2023).
Where two headings read alike, the source gives them in different places.

Tested on: ovarian cancer
Conditions: cited from earlier work

SMILES	Outcome of prior line of treatment (monotherapy, refractory high grade serous ovarian cancer subject)	Outcome of prior line of treatment (ovarian cancer subject with BRCA2 germline mutation)
Cn1ncnc1[C@H]1c2n[nH]c(=O)c3cc(F)cc(c23)N[C@@H]1c1ccc(F)cc1 [Talazoparib]	progressive disease after 10 months	
O=C(c1cc(Cc2n[nH]c(=O)c3ccccc23)ccc1F)N1CCN(C(=O)C2CC2)CC1 [olaparib]		no response
